Source: EP2261258A1, “MCSP-aligned scFv antibody fragments and use of same” (Schuler, Gerold, priority 2009, dated 2010)
Like-named read-outs stand apart in the source and are kept apart here.

Columns and labels:
[1] = melanoma patients, cited from earlier work
AML = details: Bross et al. 2001; cited from earlier work
[2] = biological target: Melanom-assoziiertes Chondroitinsulfat Proteoglykan (MCSP) (human) (UniProt Q6UVK1); assay: flow cytometry, saturation binding on A2058 melanoma cells, half-maximal saturation concentration
[3] = biological target: Melanom-assoziiertes Chondroitinsulfat Proteoglykan (MCSP) (human) (UniProt Q6UVK1); assay: ratio of KD values, flow cytometry on A2058 cells

Q: With `CN(C)/N=N/c1[nH]cnc1C(N)=O` [Dacarbazin, Dimethyl-trizeno-imidazol-Carboxamid] as the molecule, how does the Ansprechraten ([1]; according to newer studies (Avril et al. 2004)) read?
A: ~7%

Q: What about the Ansprechraten ([1]; as given in most studies) of the same molecule?
A: 10 - 20%

Q: What does the source list for “GO: gegen CD33 gerichteter humanisierter Antikörper gekoppelt an Calicheamycin”?
A: Patienten, die ansprechen (AML): ~30%; mittlere rückfallfreie Überlebenszeit (AML): 6,8 Monate

B1: scFv-Fragment MCSP (scFv)
scFv: MADYKDIVMTQSPASLAVSLGQRATISCRASESVDSYGNSFMHWYQQKPGQPPKLLIYLASNLESGVPARFSGSGSRTDFTLTIDPVEADDAATYYCQQNNEDPLTFGSGTKLETKRGGGGSGGGGSGGGGSGGGGSQVQLKQSGPELVKPGASVKISCKASGYAFSRSWMNWVKQRPGQGLEWIGRIYPGDGDTNYNGKFKGKATLTADKSSSTAYMQVSSLTSVDSAVYFCARGNTVVVPYTMDYWGQGTSVTVPSASGADHHHHHH
Q: With B1 as the molecule, how does the Kd [2] read?
A: 23.3 nM

B2: scFv-Fragment MCSP HL (scFv)
scFv: MADYKQVKLQQSGPELVKPGASVKISCKASGYAFSRSWMNWVKQRPGQGLEWIGRIYPGDGDTNYNGKFKGKATLTADKSSSTAYMQVSSLTSVDSAVYFCARGNTVVVPYTMDYWGQGTTVTVSSGGGGSGGGGSGGGGSDIELTQSPASLAVSLGQRATISCRASESVDSYGNSFMHWYQQKPGQPPKLLIYLASNLESGVPARFSGSGSRTDFTLTIDPVEADDAATYYCQQNNEDPLTFGGGTKLELKRSASGADHHHHHH
Q: With B2 as the molecule, how does the fold improvement of affinity against the original scFv MCSP [3] read?
A: 14 fold

Q: And the Kd [2]?
A: 1.65 nM
